Data reported in patent US8361964B2, “Growth hormone releasing factor (GRF) analogs and uses thereof” (Theratechnologies Inc., priority 2011, dated 2013).
Where a SMILES comes first, the peptide text is derived from it.

Legend:
Growth Hormone secretion [1] = experiment: Growth Hormone secretion in female mice after subcutaneous GRF analog; assay type: in vivo; conditions: female CD-1 mice; 10 μg/mouse subcutaneous; plasma 10 minutes after injection
From the text: (§1) CD-1 mice (female, weighting from 20 to 25 g) were obtained from Charles River Inc. Animals were used according to a protocol of the Animal Care Committee along with the principles of the Guide for the Care and Use of Experimental Animals of the Canadian Council on Animal Care. The animals were maintained on standard laboratory chow under a 12:12 light:dark cycle. They were kept in groups of 4 mice per cage.
At the day of the experiment, mice received a subcutaneous injection of GRF analog (10 μg/mouse dissolved in 20 mM sodium acetate (AcONa)+5% mannitol at pH 5). 10 minutes after injection, the mice were anesthezied with isolufrane. Blood samples (500 μl) were obtained by intra-cardiac puncture. Blood was placed into microtainer pre-treated with K3EDTA and immediately centrifuged at 13,000 RPM in a desktop centrifuge for 2 minutes. The plasma was collected and placed into a screwcap Eppendorf™ tube and quick frozen in liquid nitrogen. The samples were then kept at −80° C. until assayed. Determination of GH levels was performed as described below.
(§2) Rat and mouse plasma samples were vortexed carefully and centrifuged at 9,000 RPM for 2 min at 4° C. The dosage of GH levels was performed using the Rat/Mouse Growth Hormone ELISA kit from Millipore (Cat. # EZRMGH-45K). Sample supernatants were first diluted 20-fold with the GH ELISA assay buffer, and 10 μl of this dilution was added to the ELISA plate with 90 μl of GH EIA assay buffer. The remaining of the procedure was performed according to the manufacturer's instructions, and the data obtained were analyzed using GraphPad Prism™ software.
(§3) The GRF analogs described herein were tested for their ability to induce GH release in female mice and rats. […] The data are presented in Tables III (mice) and IV-V (rats).

Growth Hormone secretion [2] = experiment: Growth Hormone secretion in female rats after subcutaneous GRF analog; assay type: in vivo; conditions: female Sprague-Dawley rats; 10 μg/rat subcutaneous; plasma 0-60 minutes
From the text: as §1, with “Sprague-Dawley rats” for “CD-1 mice”, “250” for “20”, “300” for “25”, “rats” for “mice”
The animals were anesthetized with isoflurane 2.5%. A mid-section opening was made in the neck to expose the carotid artery. The carotid artery was canulated with polypropylene tubing (PE-50) to allow blood withdrawal. After surgical preparation, rats received a subcutaneous injection of GRF analog (10 μg/rat dissolved in 20 mM AcONa+5% mannitol at pH 5). For pharmacodynamics studies, blood samples (400 μL) were collected from 4 to 8 animals per group per time point. Blood samples (400 μl) were collected via the carotid catheter at 0, 10, 20, 30, 45 and 60 minutes after drug injection. Blood was placed into microtainer pre-treated with K3EDTA and immediately centrifuged at 13,000 RPM in a desktop centrifuge for 2 minutes. The plasma was collected and placed into a screw cap Eppendorf™ and quick frozen in liquid nitrogen. The samples were then kept at −80° C. until assayed. Determination of GH levels was performed as described below.
as §2, §3

Molecule | GH levels 10 min (Growth Hormone secretion [1]) | Mean AUC (GH Area Under the curve, GH concentration over time) (Growth Hormone secretion [2]) | Mean Cmax (ng/ml) of Growth Hormone secretion (Growth Hormone secretion [2])
CC[C@H](C)[C@H](NC(=O)[C@H](C)NC(=O)[C@H](CC(=O)O)NC(=O)[C@@H](C)NC(=O)[C@@H](N)Cc1ccc(O)cc1)C(=O)N[C@@H](Cc1ccccc1)C(=O)N[C@H](C(=O)N[C@@H](CC(=O)O)C(=O)N[C@@H](CO)C(=O)N[C@@H](Cc1ccc(O)cc1)C(=O)N[C@@H](CCCNC(=N)N)C(=O)N[C@@H](CCCCN)C(=O)N[C@H](C(=O)N[C@@H](CC(C)C)C(=O)N[C@@H](C)C(=O)N[C@@H](CCC(N)=O)C(=O)N[C@@H](CC(C)C)C(=O)N[C@@H](CCCCN)C(=O)N[C@@H](CC(C)C)C(=O)N[C@@H](CCCNC(=N)N)C(=O)N[C@@H](CCC(N)=O)C(=O)N[C@@H](CC(=O)O)C(=O)N[C@H](C(=O)N[C@@H](CC(C)C)C(=O)N[C@@H](C)C(=O)N[C@@H](CCCNC(=N)N)C(=O)N[C@@H](C)C(=O)N[C@@H](C)C(=O)N[C@@H](CCCNC(=N)N)C(=O)N[C@@H](C)C(=O)N[C@@H](C)C(=O)N[C@@H](CCCNC(=N)N)C(N)=O)[C@@H](C)CC)C(C)C)[C@@H](C)O [SEQ ID NO: 29, Y-a-DAIFTDSYRKVLAQLKLRQDILARAARAAR-NH2] (HELM PEPTIDE1{Y.[dA].D.A.I.F.T.D.S.Y.R.K.V.L.A.Q.L.K.L.R.Q.D.I.L.A.R.A.A.R.A.A.R.[am]}$$$$V2.0) | 457.7 ng/mL | 9442 | 466.7 ng/mL
CC/C=C/CC(=O)N[C@@H](Cc1ccc(O)cc1)C(=O)N[C@@H](C)C(=O)N[C@@H](CC(=O)O)C(=O)N[C@@H](C)C(=O)N[C@H](C(=O)N[C@@H](Cc1ccccc1)C(=O)N[C@H](C(=O)N[C@@H](CC(=O)O)C(=O)N[C@@H](CO)C(=O)N[C@@H](Cc1ccc(O)cc1)C(=O)N[C@@H](CCCNC(=N)N)C(=O)N[C@@H](CCCCN)C(=O)N[C@H](C(=O)N[C@@H](CC(C)C)C(=O)N[C@@H](C)C(=O)N[C@@H](CCC(N)=O)C(=O)N[C@@H](CC(C)C)C(=O)N[C@@H](CCCCN)C(=O)N[C@@H](C)C(=O)N[C@@H](CCCNC(=N)N)C(=O)N[C@@H](CCC(N)=O)C(=O)N[C@@H](CC(=O)O)C(=O)N[C@H](C(=O)N[C@@H](CC(C)C)C(=O)N[C@@H](C)C(=O)N[C@@H](CCCNC(=N)N)C(=O)N[C@@H](C)C(=O)N[C@@H](C)C(=O)N[C@@H](CCCNC(=N)N)C(=O)N[C@@H](C)C(=O)N[C@@H](C)C(=O)N[C@@H](CCCNC(=N)N)C(N)=O)[C@@H](C)CC)C(C)C)[C@@H](C)O)[C@@H](C)CC [SEQ ID NO: 31, Trans-3-hexenoyl-YADAIFTDSYRKVLAQLKARQDILARAARAAR-NH2] (HELM PEPTIDE1{[CC/C=C/CC(=O)[*:2]].Y.A.D.A.I.F.T.D.S.Y.R.K.V.L.A.Q.L.K.A.R.Q.D.I.L.A.R.A.A.R.A.A.R.[am]}$$$$V2.0) | 563.6 ng/mL | 9093 | 459.9 ng/mL
CC[C@H](C)[C@H](NC(=O)[C@H](C)NC(=O)[C@H](CC(=O)O)NC(=O)[C@@H](C)NC(=O)[C@@H](N)Cc1ccc(O)cc1)C(=O)N[C@@H](Cc1ccccc1)C(=O)N[C@H](C(=O)N[C@@H](CC(=O)O)C(=O)N[C@@H](CO)C(=O)N[C@@H](Cc1ccc(O)cc1)C(=O)N[C@@H](CCCNC(=N)N)C(=O)N[C@@H](CCCCN)C(=O)N[C@H](C(=O)N[C@@H](CC(C)C)C(=O)N[C@@H](C)C(=O)N[C@@H](CCC(N)=O)C(=O)N[C@@H](CC(C)C)C(=O)N[C@@H](CCCN)C(=O)N[C@@H](C)C(=O)N[C@@H](CCCNC(=N)N)C(=O)N[C@@H](CCC(N)=O)C(=O)N[C@@H](CC(=O)O)C(=O)N[C@H](C(=O)N[C@@H](CC(C)C)C(=O)N[C@@H](CO)C(=O)N[C@H](CCCNC(=N)N)C(N)=O)[C@@H](C)CC)C(C)C)[C@@H](C)O [SEQ ID NO: 23, Y-a-D-A-I-F-T-D-S-Y-R-K-V-L-A-Q-L-O-A-R-Q-D-I-L-S-r-NH2] (HELM PEPTIDE1{Y.[dA].D.A.I.F.T.D.S.Y.R.K.V.L.A.Q.L.[Orn].A.R.Q.D.I.L.S.[dR].[am]}$$$$V2.0) | 269.9 ng/mL | – | –
CC[C@H](C)[C@H](NC(=O)[C@H](C)NC(=O)[C@H](CC(=O)O)NC(=O)[C@@H](C)NC(=O)[C@@H](N)Cc1ccc(O)cc1)C(=O)N[C@@H](Cc1ccccc1)C(=O)N[C@H](C(=O)N[C@@H](CC(=O)O)C(=O)N[C@@H](CO)C(=O)N[C@@H](Cc1ccc(O)cc1)C(=O)N[C@@H](CCCNC(=N)N)C(=O)N[C@@H](CCCCN)C(=O)N[C@H](C(=O)N[C@@H](CC(C)C)C(=O)N[C@@H](C)C(=O)N[C@@H](CCC(N)=O)C(=O)N[C@@H](CC(C)C)C(=O)N[C@@H](CCCCN)C(=O)N[C@@H](C)C(=O)N[C@@H](CCCNC(=N)N)C(=O)N[C@@H](CCC(N)=O)C(=O)N[C@@H](CC(=O)O)C(=O)N[C@@H](CC(C)C)C(=O)N[C@@H](CC(C)C)C(=O)N[C@@H](CO)C(=O)N[C@H](CCCNC(=N)N)C(N)=O)C(C)C)[C@@H](C)O [SEQ ID NO: 25, Y-a-DAIFTDSYRKVLAQLKARQDLLS-r-NH2] (HELM PEPTIDE1{Y.[dA].D.A.I.F.T.D.S.Y.R.K.V.L.A.Q.L.K.A.R.Q.D.L.L.S.[dR].[am]}$$$$V2.0) | 144.1 ng/mL | – | –
CC/C=C/CC(=O)N[C@@H](Cc1ccc(O)cc1)C(=O)N[C@@H](C)C(=O)N[C@@H](CC(=O)O)C(=O)N[C@@H](C)C(=O)N[C@H](C(=O)N[C@@H](Cc1ccccc1)C(=O)N[C@H](C(=O)N[C@@H](CC(=O)O)C(=O)N[C@@H](CO)C(=O)N[C@@H](Cc1ccc(O)cc1)C(=O)N[C@@H](CCCNC(=N)N)C(=O)N[C@@H](CCCCN)C(=O)N[C@H](C(=O)N[C@@H](CC(C)C)C(=O)N[C@@H](C)C(=O)N[C@@H](CCC(N)=O)C(=O)N[C@@H](CC(C)C)C(=O)N[C@@H](CCCN)C(=O)N[C@@H](C)C(=O)N[C@@H](CCCNC(=N)N)C(=O)N[C@@H](CCC(N)=O)C(=O)N[C@@H](CC(=O)O)C(=O)N[C@H](C(=O)N[C@@H](CC(C)C)C(=O)N[C@@H](CO)C(=O)N[C@H](CCCNC(=N)N)C(N)=O)[C@@H](C)CC)C(C)C)[C@@H](C)O)[C@@H](C)CC [SEQ ID NO: 24, Trans-3-hexenoyl-Y-A-D-A-I-F-T-D-S-Y-R-K-V-L-A-Q-L-O-A-R-Q-D-I-L-S-r-NH2] (HELM PEPTIDE1{[CC/C=C/CC(=O)[*:2]].Y.A.D.A.I.F.T.D.S.Y.R.K.V.L.A.Q.L.[Orn].A.R.Q.D.I.L.S.[dR].[am]}$$$$V2.0) | 332.6 ng/mL | – | –
H-YLDAIFTDSYRKVLAQLKARQDILARAARAAR-NH2 [SEQ ID NO: 35, YLDAIFTDSYRKVLAQLKARQDILARAARAAR-NH2] | – | 9144 | 376.9 ng/mL
CC[C@H](C)[C@H](NC(=O)[C@H](C)NC(=O)[C@H](CC(=O)O)NC(=O)[C@@H](C)NC(=O)[C@@H](N)Cc1ccc(O)cc1)C(=O)N[C@@H](Cc1ccccc1)C(=O)N[C@H](C(=O)N[C@@H](CC(=O)O)C(=O)N[C@@H](CO)C(=O)N[C@@H](Cc1ccc(O)cc1)C(=O)N[C@@H](CCCNC(=N)N)C(=O)N[C@@H](CCCCN)C(=O)N[C@H](C(=O)N[C@@H](CC(C)C)C(=O)N[C@@H](C)C(=O)N[C@@H](CCC(N)=O)C(=O)N[C@@H](CC(C)C)C(=O)N[C@@H](CCCCN)C(=O)N[C@@H](C)C(=O)N[C@@H](CCCNC(=N)N)C(=O)N[C@@H](CCC(N)=O)C(=O)N[C@@H](CC(=O)O)C(=O)N[C@H](C(=O)N[C@@H](CC(C)C)C(=O)NC(C)(C)C(=O)N[C@@H](CCCNC(=N)N)C(N)=O)[C@@H](C)CC)C(C)C)[C@@H](C)O [SEQ ID NO: 22, Y-a-DAIFTDSYRKVLAQLKARQDIL-aib-R-NH2] (HELM PEPTIDE1{Y.[dA].D.A.I.F.T.D.S.Y.R.K.V.L.A.Q.L.K.A.R.Q.D.I.L.[Aib].R.[am]}$$$$V2.0) | 249.1 ng/mL | – | –
